Experimental data as given in patent US8921414B2, “Spiroketals” (EcoBiotics Ltd, priority 2005, dated 2014).
Converted amounts (≈) assume the structure as drawn.

Key:
Bacillus subtilis = assay: ProTOX (Bs) antibacterial bioassay; type: cell-based; details: weight of chemical in last well with activity; real value may be lower
From the text: ProTOX, (alternatively referred to herein as Bs) is an antibacterial bioassay, broadly applicable to most aerobic and anaerobic bacteria. The bioassay features a solid phase agar base into which the test compound has been incorporated together with a chromogen. As the bacteria multiply in the well, the chromogen is metabolised from blue in a two-step process to a colourless compound. Compounds with potent bactericidal activity inhibit bacterial metabolism of the chromogen while bacteriostatic compounds induce limited metabolism as indicated by an intermediate pink colour. ProTOX is broadly applicable to a range of gram-positive and gram-negative bacteria under aerobic and microaerophilic conditions. ProTOX assays were carried out using Bacillus subtilis. Briefly, in ProTOX, the bacteria (24 hour broth) were applied to the surface of an agar matrix containing the test sample and allowed to grow for 48 h. The assay was monitored at 24 and 48 hours and the active wells noted. Known antibiotics yield consistent colour transitions which are concentration and time dependent. These patterns provided an important guide to the early recognition of interesting characteristics.

[1] = tested on: NS1 murine myeloma cell line; assay: CyTOX (Cy) cytotoxicity bioassay; type: cell-based; details: weight of chemical in last well with activity; real value may be lower
From the text: CyTOX (alternatively referred to herein as Cy) is a microtitre plate bioassay use to identify potential antitumor actives. CyTOX is a chromogenic bioassay with broad application to a wide range of tumor and non-tumor cell lines. […] CyTOX features a liquid media into which the test compound has been incorporated together with a novel chromogen. As the cells grow and divide the chromogen is metabolised from purple in a single step process to a colourless metabolite. CyTOX is routinely undertaken using NS1 murine myeloma cell line as a guide to mammalian cell toxicity. Briefly, in CyTOX the cells were applied to the media containing the test chemical and allowed to grow for 72 hours. The assay was monitored at 24, 48 and 72 hours and the active wells identified.

Drosophila melanogaster = assay: DipteraTOX insecticidal bioassay; parameters: key: A value of A in DipG, Dip P or Dip H represents very active; a value of P represents active; details: 250 μg per mL in agar
Protocol: DipteraTOX. DipteraTOX is referred to herein as DipG, DipP and DipH. DipG represents no grazing of larva. DipP represents no pupae formation and Dip H represents no hatching of flies. A value of A in DipG, Dip P or Dip H represents very active and a value of P represents active. In DipteraTox the fly eggs are applied to the surface of an agar matrix containing 250 μg per mL of the test chemical and allowed to hatch, develop and pupate for a period up of two weeks. The assay was monitored at two discrete times to determine the extent of grazing of the agar matrix at Week 1 and the presence of adult flies at Week 2. […] Drosophila melanogaster was utilised for this assay.

Giardia spp. = assay: TriTOX (Gi) anti-protozoan bioassay; type: cell-based; details: weight of chemical in last well with activity; real value may be lower
From the text: TriTOX (alternatively referred to herein as Gi) is a microtitre plate based chromogenic bioassay for the screening of anti-protozoan activity of pathogenic, anaerobic/microaerophilic protozoans for example Giardia spp. and Trichomonas spp. The bioassays are run under anaerobic conditions and features species specific chromogens. […] Aliquots of each concentration(s) are applied to the wells of 96-well microtitre plates and diluted with media. […] The lowest concentration at which the compound is active is noted as the minimum inhibitory concentration (MIC). Additionally, microscopic inspection is carried out to identify any patterns of morphological change that may be consistent with a type of toxicity and therefore mode of action. Giardia spp. was utilized for this assay.

[2] = tested on: normal human fibroblasts (NFF); assay: Additional in vitro activity: cytotoxic activity, NFF; type: cell-based; details: concentration with activity
leukemia K562 = assay: Additional in vitro activity: antitumor activity, K562; type: cell-based, human; details: concentration with activity
melanoma MM96L = assay: Additional in vitro activity: antitumor activity, MM96L; type: cell-based, human; details: concentration with activity
melanoma MM418c5 = assay: Additional in vitro activity: antitumor activity, MM418c5; type: cell-based, human; details: concentration with activity
prostate DU145 = assay: Additional in vitro activity: antitumor activity, DU145; type: cell-based, human; details: concentration with activity
breast MCF-7 = assay: Additional in vitro activity: antitumor activity, MCF-7; type: cell-based, human; details: concentration with activity
ovarian C180-13S = assay: Additional in vitro activity: antitumor activity, C180-13S; type: cell-based, human; details: concentration with activity
[3] = tested on: Neonatal foreskin fibroblasts (NFF); assay: Cell growth inhibition (Table 22), NFF; type: cell-based; details: Homo sapiens, read-out: IC50 (drug dose which inhibits cell growth by 50%) NFF
Protocol: (§1) The isolated compounds were tested against a number of human and non-human cancer cell lines. The human tumor cell lines were: MCF-7, MDA-MB-231 and T47D, breast cancer; DU145 and PC3, prostate cancer; CI80-13S, ovarian cancer; MM96L, D04, SkMel5, MM418c5 melanoma; HT29, colon cancer; K562 and HL60, leukemia. Mouse cell lines were the B16 mouse melanoma and LK2 UV-induced squamous cell carcinoma (SCC). Neonatal foreskin fibroblasts (NFF) were used as normal control cells. Cells were cultured at 37° C. in 5% carbon dioxide/air, in RPMI 1640 medium containing 10% fetal calf serum.

MCF-7 breast cancer = assay: Cell growth inhibition (Table 22), MCF7; type: cell-based; details: Homo sapiens, read-out: IC50 (drug dose which inhibits cell growth by 50%) MCF7
Protocol: as §1

DU145 prostate cancer = assay: Cell growth inhibition (Table 22), DU145; type: cell-based; details: Homo sapiens, DU-145; read-out: IC50 (drug dose which inhibits cell growth by 50%) DU145
Protocol: as §1

K562 leukemia = assay: Cell growth inhibition (Table 22), K562; type: cell-based; details: Homo sapiens, read-out: IC50 (drug dose which inhibits cell growth by 50%) K562
Protocol: as §1

CI80-13S ovarian cancer = assay: Cell growth inhibition (Table 22), C180-13S; type: cell-based; details: Homo sapiens, read-out: IC50 (drug dose which inhibits cell growth by 50%) C180-13S
Protocol: as §1

MM96L melanoma = assay: Cell growth inhibition (Table 22), MM96L; type: cell-based; details: Homo sapiens, read-out: IC50 (drug dose which inhibits cell growth by 50%) MM96L
Protocol: as §1

tumor cells = assay: Cell arrest, comparison of ethacrynic acid with EBI-23; type: cell-based

SMILES | Bs LD99 (Bacillus subtilis) [µg/mL] | Cy LD99 [1] [µg/mL] | DipH (no hatching of flies) (Drosophila melanogaster) | Gi LD99 (Giardia spp.) [µg/mL] | cytotoxic activity against normal human fibroblasts (NFF) at [2] [µg/mL] | antitumor activity against leukemia K562 at (leukemia K562) [µg/mL] | antitumor activity against melanoma MM96L at (melanoma MM96L) [µg/mL] | antitumor activity against melanoma MM418c5 at (melanoma MM418c5) [µg/mL] | antitumor activity against prostate DU145 at (prostate DU145) [µg/mL] | antitumor activity against breast MCF-7 at (breast MCF-7) [µg/mL] | antitumor activity against ovarian C180-13S at (ovarian C180-13S) [µg/mL] | IC50 [3] [µg/mL] | IC50 (MCF-7 breast cancer) [µg/mL] | IC50 (DU145 prostate cancer) [µg/mL] | IC50 (K562 leukemia) [µg/mL] | IC50 (CI80-13S ovarian cancer) [µg/mL] | IC50 (MM96L melanoma) [µg/mL] | fold higher concentration than EBI-23 to achieve cell arrest (tumor cells) [fold] | selectivity against tumor cells (tumor cells)
CCCCCCCCCCCCCC(CC1CC(O)CC2(CC3OC(=O)C=CC3O2)O1)OC(C)=O (stereo not shown) [EBI-25] | 25 | 1.6 | P | 50 | 30 | 30 | 10 | 10 | 30 | 300 | 3 | 3 (≈ 6.06 µM) | 0.34 (≈ 0.687 µM) | 1 (≈ 2.02 µM) | 6.1 (≈ 12.3 µM) | 5 (≈ 10.1 µM) | 1.6 (≈ 3.23 µM) | – | –
C=C(CC)C(=O)c1ccc(OCC(=O)O)c(Cl)c1Cl [ethacrynic acid] | – | – | – | – | – | – | – | – | – | – | – | – | – | – | – | – | – | 10 | no selectivity
CCCCCCCCCCCCCC(CC1C=CCC2(CC3OC(=O)C=CC3O2)O1)OC(C)=O (stereo not shown) [EBI-42] | – | – | – | – | > 10 | – | 10 | – | – | – | 10 | > 10 | 6 (≈ 12.6 µM) | > 10 | > 10 | 6 (≈ 12.6 µM) | 6 (≈ 12.6 µM) | – | –
